The values below come from ChEMBL document CHEMBL1145288, “5-substituted, 6-substituted, and unsubstituted 3-heteroaromatic pyridine analogues of nicotine as selective inhibitors of cytochrome P-450 2A6” (J Med Chem, 2005).

One data set concerns the target Cytochrome P450 2E1 (Homo sapiens, UniProt P05181). As to the kind of experiment: Inhibitory concentration value against human cytochrome P-450 2E1.
The target of data set [1] is T1, Cytochrome P450 2A6 (Homo sapiens, UniProt P11509).
T1 sequence (P11509 whole entry): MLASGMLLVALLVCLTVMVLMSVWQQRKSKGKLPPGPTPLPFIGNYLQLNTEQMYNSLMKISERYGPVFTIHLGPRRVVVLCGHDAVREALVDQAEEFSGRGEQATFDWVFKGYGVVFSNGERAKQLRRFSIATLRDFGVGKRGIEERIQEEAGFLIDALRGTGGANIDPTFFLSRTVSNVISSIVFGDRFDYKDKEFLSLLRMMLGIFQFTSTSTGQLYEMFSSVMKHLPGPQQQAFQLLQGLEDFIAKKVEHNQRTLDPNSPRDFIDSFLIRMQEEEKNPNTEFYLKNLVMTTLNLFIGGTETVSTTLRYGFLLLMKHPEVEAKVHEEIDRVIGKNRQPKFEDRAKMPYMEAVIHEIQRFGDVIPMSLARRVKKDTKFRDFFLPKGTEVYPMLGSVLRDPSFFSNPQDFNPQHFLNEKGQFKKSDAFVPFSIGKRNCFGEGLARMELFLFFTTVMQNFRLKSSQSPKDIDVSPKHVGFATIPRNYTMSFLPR
The data set is described as follows: Inhibitory concentration value against human cytochrome P-450 2A6.

Data set [2] concerns the target T1, Cytochrome P450 2A6. The data set is described as follows: Effect on coumarin 7-hydroxylation by human Cytochrome P-450 2A6.
Another data set addresses Cytochrome P450 2C9 (Homo sapiens, UniProt P11712). As to the kind of experiment: Inhibitory concentration against human cytochrome P-450 2C9.
Another data set deals with CYP2D6 versus CYP2A6. The data set is described as follows: Ratio of inhibition of human cytochrome P-450 2D6 to 2A6 was determined; Expressed as IC50(CYP2D6)/IC50(CYP2A6).
The next data set relates to CYP3A4 versus CYP2A6. As to the kind of experiment: Ratio of inhibition of human cytochrome P-450 3A4 to 2A6 was determined; Expressed as IC50(CYP3A4)/IC50(CYP2A6).
A further data set relates to CYP2C19 versus CYP2A6. The data set is described as follows: Ratio of inhibition of human cytochrome P-450 2C19 to 2A6 was determined; Expressed as IC50(CYP2C19)/IC50(CYP2A6).
For another data set, the system named is CYP2C9 versus CYP2A6. As to the kind of experiment: Ratio of inhibition of human cytochrome P-450 2C9 to 2A6 was determined; Expressed as IC50(CYP2C9)/IC50(CYP2A6).
The test system of a further data set is CYP2E1 versus CYP2A6. The data set is described as follows: Ratio of inhibition of human cytochrome P-450 2E1 to 2A6 was determined; Expressed as IC50(CYP2E1)/IC50(CYP2A6).
The target of a further data set is Cytochrome P450 2C19 (Homo sapiens, UniProt P33261). As to the kind of experiment: Inhibitory concentration value against human cytochrome P-450 2C19.
Chain of Cytochrome P450 2C19 (P33261 whole entry): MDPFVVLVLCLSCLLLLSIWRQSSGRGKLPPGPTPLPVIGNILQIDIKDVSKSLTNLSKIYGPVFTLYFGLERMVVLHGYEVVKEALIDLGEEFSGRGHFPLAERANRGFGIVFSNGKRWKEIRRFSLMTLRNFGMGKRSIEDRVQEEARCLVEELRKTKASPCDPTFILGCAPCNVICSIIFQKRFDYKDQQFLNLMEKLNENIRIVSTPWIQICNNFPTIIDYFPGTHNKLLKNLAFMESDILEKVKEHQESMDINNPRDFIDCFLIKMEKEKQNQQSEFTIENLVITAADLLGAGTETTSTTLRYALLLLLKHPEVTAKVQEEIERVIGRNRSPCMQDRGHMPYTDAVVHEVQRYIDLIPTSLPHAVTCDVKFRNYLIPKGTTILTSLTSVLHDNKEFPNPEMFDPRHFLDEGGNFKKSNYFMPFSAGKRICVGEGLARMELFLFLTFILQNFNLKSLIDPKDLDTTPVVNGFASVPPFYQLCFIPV
Another data set has as its target T2, Cytochrome P450 2B6 (Homo sapiens, UniProt P20813).
T2 sequence (P20813 whole entry): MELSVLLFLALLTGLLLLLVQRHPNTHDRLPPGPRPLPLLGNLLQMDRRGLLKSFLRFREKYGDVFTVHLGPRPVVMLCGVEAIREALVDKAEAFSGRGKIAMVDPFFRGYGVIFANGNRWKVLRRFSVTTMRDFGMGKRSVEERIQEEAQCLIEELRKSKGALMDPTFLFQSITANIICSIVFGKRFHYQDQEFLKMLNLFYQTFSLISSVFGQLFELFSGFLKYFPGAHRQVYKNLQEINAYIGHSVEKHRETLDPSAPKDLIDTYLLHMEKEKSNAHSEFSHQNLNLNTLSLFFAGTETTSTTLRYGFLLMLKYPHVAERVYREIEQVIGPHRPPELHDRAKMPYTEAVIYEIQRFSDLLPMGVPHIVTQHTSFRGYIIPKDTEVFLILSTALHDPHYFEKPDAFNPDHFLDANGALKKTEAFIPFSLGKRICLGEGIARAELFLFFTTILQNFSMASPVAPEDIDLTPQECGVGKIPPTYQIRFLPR
As to the kind of experiment: Inhibitory concentration value against human cytochrome P-450 2B6.

Another data set has as its target Cytochrome P450 2D6 (Homo sapiens, UniProt P10635). The data set is described as follows: Inhibitory concentration value against human cytochrome P-450 2D6.
A further data set relates to CYP2B6 versus CYP2A6. The data set is described as follows: Ratio of inhibition of human cytochrome P-450 2B6 to 2A6 was determined; Expressed as IC50(CYP2B6)/IC50(CYP2A6).
In the next data set the target is Cytochrome P450 3A4 (Homo sapiens, UniProt P08684). As to the kind of experiment: Inhibitory concentration value against human cytochrome P-450 3A4.
Chain of Cytochrome P450 3A4 (P08684 whole entry): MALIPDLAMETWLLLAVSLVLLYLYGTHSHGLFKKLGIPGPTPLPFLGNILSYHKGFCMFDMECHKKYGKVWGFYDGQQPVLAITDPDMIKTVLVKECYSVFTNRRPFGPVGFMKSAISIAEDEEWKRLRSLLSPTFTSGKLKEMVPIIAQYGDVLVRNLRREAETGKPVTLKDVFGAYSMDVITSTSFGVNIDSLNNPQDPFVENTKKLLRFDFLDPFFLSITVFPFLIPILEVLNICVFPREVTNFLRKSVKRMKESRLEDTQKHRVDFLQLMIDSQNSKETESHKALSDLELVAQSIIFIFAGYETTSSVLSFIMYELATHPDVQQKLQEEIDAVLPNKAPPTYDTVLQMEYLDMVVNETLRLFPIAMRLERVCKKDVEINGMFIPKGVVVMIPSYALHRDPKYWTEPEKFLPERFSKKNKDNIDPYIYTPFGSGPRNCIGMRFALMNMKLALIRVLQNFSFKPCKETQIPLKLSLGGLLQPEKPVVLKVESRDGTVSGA

The structures appear in SMILES notation.

Chain of Cytochrome P450 2C9 (P11712 whole entry): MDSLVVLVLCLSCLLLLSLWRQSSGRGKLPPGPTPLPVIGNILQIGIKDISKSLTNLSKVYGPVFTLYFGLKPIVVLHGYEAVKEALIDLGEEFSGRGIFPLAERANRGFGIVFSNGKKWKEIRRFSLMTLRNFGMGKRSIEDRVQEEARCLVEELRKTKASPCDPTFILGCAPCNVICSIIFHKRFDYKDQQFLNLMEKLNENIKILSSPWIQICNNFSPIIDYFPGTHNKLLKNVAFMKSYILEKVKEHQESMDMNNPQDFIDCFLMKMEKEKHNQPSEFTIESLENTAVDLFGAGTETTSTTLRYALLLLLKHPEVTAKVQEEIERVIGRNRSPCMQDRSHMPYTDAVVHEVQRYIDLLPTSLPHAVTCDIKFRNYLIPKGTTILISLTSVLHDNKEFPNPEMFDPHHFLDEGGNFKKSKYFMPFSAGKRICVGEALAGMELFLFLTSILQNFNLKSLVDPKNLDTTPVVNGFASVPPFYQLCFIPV
Chain of Cytochrome P450 2E1 (P05181 whole entry): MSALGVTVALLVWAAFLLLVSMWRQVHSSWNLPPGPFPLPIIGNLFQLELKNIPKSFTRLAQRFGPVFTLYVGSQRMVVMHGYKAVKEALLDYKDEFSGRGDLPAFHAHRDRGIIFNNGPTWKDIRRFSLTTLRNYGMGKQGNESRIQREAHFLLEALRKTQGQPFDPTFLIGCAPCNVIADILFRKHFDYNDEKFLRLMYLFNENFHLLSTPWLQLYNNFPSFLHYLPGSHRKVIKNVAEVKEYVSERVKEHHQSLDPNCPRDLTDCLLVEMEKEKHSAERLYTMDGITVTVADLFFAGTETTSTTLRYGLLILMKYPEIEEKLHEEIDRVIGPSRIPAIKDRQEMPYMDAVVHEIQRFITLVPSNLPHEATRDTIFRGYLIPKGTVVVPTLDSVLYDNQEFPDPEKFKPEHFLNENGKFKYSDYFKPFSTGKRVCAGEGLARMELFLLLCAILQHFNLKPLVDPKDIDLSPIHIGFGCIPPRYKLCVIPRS
Chain of Cytochrome P450 2D6 (P10635 whole entry): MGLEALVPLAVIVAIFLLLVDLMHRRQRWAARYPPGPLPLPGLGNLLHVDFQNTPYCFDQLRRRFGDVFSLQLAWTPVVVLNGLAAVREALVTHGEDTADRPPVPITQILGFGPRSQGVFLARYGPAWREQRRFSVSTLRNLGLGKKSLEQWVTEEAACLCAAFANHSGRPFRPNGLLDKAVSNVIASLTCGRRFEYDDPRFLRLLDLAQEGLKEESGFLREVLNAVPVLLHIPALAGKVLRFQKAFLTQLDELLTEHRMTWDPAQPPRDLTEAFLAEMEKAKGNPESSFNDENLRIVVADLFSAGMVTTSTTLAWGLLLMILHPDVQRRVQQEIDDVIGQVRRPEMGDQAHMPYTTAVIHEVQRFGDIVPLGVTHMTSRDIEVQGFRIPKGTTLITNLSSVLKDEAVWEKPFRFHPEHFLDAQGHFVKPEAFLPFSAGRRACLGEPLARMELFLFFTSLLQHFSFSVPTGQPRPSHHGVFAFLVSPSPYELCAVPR

As to `O/N=C/c1ccc(-c2cccnc2)s1`, the IC50 on Cytochrome P450 2E1 came out at 4.2 µM; against Cytochrome P450 2A6 [1] it was 1.4 µM; at Cytochrome P450 2C9 it was 223 µM; against Cytochrome P450 2C19 it was 37.2 µM; at Cytochrome P450 2B6, 214 µM; on Cytochrome P450 2D6, 191 µM. On Cytochrome P450 2A6 [2], this compound returned an inhibitory constant (Ki) of 0.24 µM. The selectivity ratio in the data set on CYP2D6 versus CYP2A6 is 136; with CYP3A4 versus CYP2A6 it was 9.3; in the data set on CYP2C19 versus CYP2A6, 27; with CYP2C9 versus CYP2A6 it was 159; in the data set on CYP2E1 versus CYP2A6, 3; in the data set with CYP2B6 versus CYP2A6, 153.

With `c1cncc(-c2ccsc2)c1`, the IC50 is > 400 µM against Cytochrome P450 2E1; 1.4 µM against Cytochrome P450 2A6 [1]; 96.3 µM on Cytochrome P450 2C9; 111 µM on Cytochrome P450 2C19; 59.1 µM against Cytochrome P450 2B6; 248 µM against Cytochrome P450 2D6. For the same compound, 56.9 µM corresponded to half-maximal inhibition at Cytochrome P450 3A4 (IC50). Further, the inhibition constant Ki on Cytochrome P450 2A6 [2] turned out to be 0.22 µM. Moreover, the selectivity ratio is 177 with CYP2D6 versus CYP2A6; 400 in the data set on CYP3A4 versus CYP2A6; 81 with CYP2C19 versus CYP2A6; 69 with CYP2C9 versus CYP2A6; > 286 in the data set with CYP2E1 versus CYP2A6; 42 with CYP2B6 versus CYP2A6.

In the case of `Fc1ccc(-c2ccsc2)cn1`, the IC50 at Cytochrome P450 2E1 was 7.2 µM; on Cytochrome P450 2A6 [1], 5.8 µM; at Cytochrome P450 2C9, > 400 µM; against Cytochrome P450 2C19, 182 µM; against Cytochrome P450 2B6 it was 72.1 µM; against Cytochrome P450 2D6 it was 199 µM. For the same compound, the midpoint of inhibition against Cytochrome P450 3A4, the IC50, lay at 114 µM. At Cytochrome P450 2A6 [2], the Ki worked out at 0.97 µM. The selectivity ratio with CYP2D6 versus CYP2A6 is 34; in the data set on CYP3A4 versus CYP2A6, 20; in the data set on CYP2C19 versus CYP2A6 it was 31; with CYP2C9 versus CYP2A6, > 69; with CYP2E1 versus CYP2A6, 1.2; in the data set on CYP2B6 versus CYP2A6, 12.

On to `C[n+]1c[nH]cc1-c1cccnc1`, for which the IC50 against Cytochrome P450 2E1 came out at 4.1 µM; at Cytochrome P450 2A6 [1], 0.75 µM; against Cytochrome P450 2C9, 79.5 µM; on Cytochrome P450 2C19, 122 µM; against Cytochrome P450 2B6 it was 146 µM; against Cytochrome P450 2D6, 217 µM. Also, the IC50 against Cytochrome P450 3A4 came out at 262 µM. The compound also returned an inhibition constant Ki at Cytochrome P450 2A6 [2] of 0.13 µM. The selectivity ratio was 289 in the data set with CYP2D6 versus CYP2A6; 349 with CYP3A4 versus CYP2A6; 163 in the data set on CYP2C19 versus CYP2A6; 106 with CYP2C9 versus CYP2A6; 5 in the data set with CYP2E1 versus CYP2A6; 195 with CYP2B6 versus CYP2A6.

Turning to `CC(=O)c1ccc(-c2cccnc2)s1`, the IC50 on Cytochrome P450 2E1 is > 400 µM; on Cytochrome P450 2C9, 98.2 µM; against Cytochrome P450 2C19, 62.7 µM; against Cytochrome P450 2B6, 217 µM; against Cytochrome P450 2D6 it was 387 µM. Also, the Ki on Cytochrome P450 2A6 [2] was 1.4 µM. Moreover, the selectivity ratio was 45 in the data set with CYP2D6 versus CYP2A6; 3.1 in the data set with CYP3A4 versus CYP2A6; 7 with CYP2C19 versus CYP2A6; 11 in the data set with CYP2C9 versus CYP2A6; > 46 in the data set with CYP2E1 versus CYP2A6; 25 in the data set on CYP2B6 versus CYP2A6.

For the compound `CCn1cnc(-c2cccnc2)c1`, the IC50 was determined as 80 µM at Cytochrome P450 2E1; 75.2 µM against Cytochrome P450 2C9; 46.4 µM against Cytochrome P450 2C19; 83.1 µM against Cytochrome P450 2B6; 344 µM on Cytochrome P450 2D6; 79.2 µM against Cytochrome P450 3A4. The compound further showed a Ki at Cytochrome P450 2A6 [2] of 0.52 µM. Also, the selectivity ratio with CYP2D6 versus CYP2A6 came to 111; with CYP3A4 versus CYP2A6 it was 26; with CYP2C19 versus CYP2A6, 15; in the data set on CYP2C9 versus CYP2A6, 24; with CYP2E1 versus CYP2A6, 26; in the data set on CYP2B6 versus CYP2A6, 26.

Consider `CNc1ccc(-c2cccnc2)s1`, for which the IC50 against Cytochrome P450 2E1 was determined as 31.1 µM; at Cytochrome P450 2A6 [1], 3.5 µM; at Cytochrome P450 2C9, 2.1 µM; against Cytochrome P450 2C19 it was 3.2 µM; at Cytochrome P450 2B6 it was 6.8 µM; against Cytochrome P450 2D6 it was 14.4 µM. Moreover, it took 6.3 µM to reach half-maximal inhibition against Cytochrome P450 3A4 (IC50). The compound also had a Ki at Cytochrome P450 2A6 [2] of 0.59 µM. The selectivity ratio came out at 4.1 in the data set on CYP2D6 versus CYP2A6; 2 with CYP3A4 versus CYP2A6; 0.9 in the data set with CYP2C19 versus CYP2A6; 0.6 with CYP2C9 versus CYP2A6; 8.9 in the data set on CYP2E1 versus CYP2A6; 1.9 with CYP2B6 versus CYP2A6.
